Marks after values point to notes of the source that are not given here.
How the values were obtained:
[1] = test system: Maximal electroshock seizures (MES); assay: Maximal electroshock (MES) model of seizure; type: in vivo, mouse
Method: The vehicle used in this study was 2:1:17 (ethanol:Cremophor:0.9% w/v NaCl). […] This was made to a solution at the highest concentration; then dissolved in ethanol before combination with Cremophor and 0.9% NaCl in the proportion described above. The 7-OH-CBDV was administered intraperitoneally at a volume of 10 ml/kg body weight.
Animal Species/Strain: Mouse/ICR, Microbiological grade: SPF, Inc. Sex: male, Age (at time of testing): 5-7 weeks old, Number of animals: about 5 animals per group. Temperature: 23±2° C., Humidity: 60±10%, Light conditions: 7 AM to 7 PM for the light period, 7 PM to 7 AM for the dark period. Chow and water: Free access to CRF-1 (Oriental Yeast Co, Ltd) and tap water.
One day before each experiment, mice were weighed and randomized into several groups in each test. On the morning of the experiment day, body weight was measured in order to calculate the administration volume of each animal. Vehicle, 7-OH-CBDV or CBDV was interperitoneally administered 30 minutes before electric stimuli. […]
All statistical analyses were performed using SAS Software for Windows, Release 9.1. The difference of the number (hindlimb extension or deaths) in each group was assessed using two-tailed Fisher's exact test. […]

PTZ-induced seizures = assay: PTZ model of generalised (acute) seizures; type: in vivo, rat; conditions: for Anti-convulsant action in the PTZ model of acute seizure: 7-OH-CBDV 200 mg/kg, 7-OH-CBD 100 mg/kg IP; for Maximum observed seizure severity (median): IP 30 min before PTZ 70 or 80 mg/kg IP, score scale 0-6, FIG. 1A; for Maximum observed seizure severity (median) / Mortality / Latency to seizure onset: CBD and 7-OH CBD 100 mg/kg; for Mortality: FIG. 1B; for Potency compared with parent cannabinoid: metabolite vs parent (CBD, CBDV) at the same dose; for Latency to seizure onset: FIG. 1D
Method: Male Wistar rats (P24-29; 75-110 g) were used to assess the effects of the cannabinoids listed above on the PTZ model of generalised seizures. Animals were habituated to the test environment, cages, injection protocol and handling prior to experimentation. Animals were housed in a room at 21° C. on a 12 hour light: dark cycle (lights on 0900) in 50% humidity, with free access to food and water.
Five 6 L Perspex (RTM) tanks with lids were placed on a single bench with dividers between them. Closed-circuit television (CCTV) cameras were mounted onto the dividers to observe rat behaviour. Sony Topica CCD cameras (Bluecherry, USA) were linked via BNC cables to a low-noise PC via Brooktree digital capture cards (Bluecherry, USA). Zoneminder (http://www.zoneminder.com) software was used to monitor rats, start and end recordings and manage video files. In-house Linux (RTM) scripts were used to encode video files into a suitable format for further offline analysis
Animals were filmed for half an hour after last sign of seizure, and then returned to their cage.
Animals were observed during experimental procedures, but all analysis was performed offline on recorded video files using The Observer behavioural analysis software (Noldus, Netherlands). A seizure severity scoring system was used to determine the levels of seizure experienced by subjects (Table 1). All signs of seizure were detailed for all animals.
The latency (in seconds) from injection of PTZ to first myoclonic jerk (FMJ; score of 1), and to the animal attaining “forelimb clonus with tonic component and body twist” (score of 3.5) were recorded. […] Data are presented as the mean±S.E.M. within an experimental group.
This is given as the median value for each experimental group based on the scoring scale above.
The percentage of animals within an experimental group that died as a result of PTZ-induced seizures. A score of 6 (death) automatically denotes that the animal also experienced tonic-clonic seizures.
This is given as the mean±S.E.M. for each experimental group.
Differences in latencies and durations were assessed by one-way analysis of variance (ANOVA) with post-hoc Tukey's test. P≤0.05 was considered significant.

[2] = WO 01/95899; cited from earlier work
[3] = test system: seizures in epileptic patients; conditions: cited from earlier work
[4] = test system: seizures after pro-convulsant drugs or an electric current; conditions: mice, after pro-convulsant drugs or an electric current (Consroe et al., 1982); cited from earlier work
[5] = CBDV and 7-OH CBDV 200 mg/kg, n=11
[6] = IP 30 min before PTZ, CBDV and 7-OH CBDV 200 mg/kg, n=11

| Structure (SMILES) | Anti-convulsant effects in the MES model ([1]; 150 and 200 mg/kg i.p.) | Anti-convulsant action in the PTZ model of acute seizure (PTZ-induced seizures) | Maximum observed seizure severity (median) (PTZ-induced seizures; [5]) | Mortality (PTZ-induced seizures; [6]) | Potency compared with parent cannabinoid (PTZ-induced seizures) | Percentage decrease in tonic clonic convulsions compared with vehicle ([1]; 200 mg/kg i.p., 30 minutes before electric stimuli, ICR mice) | Incidence of tonic clonic seizures (PTZ-induced seizures; IP 30 min before PTZ, CBDV and 7-OH CBDV 200 mg/kg, n=11, FIG. 1C) | Latency to seizure onset (PTZ-induced seizures; [6]) | Latency to seizure onset (PTZ-induced seizures; IP 30 min before PTZ, CBDV and 7-OH CBDV 200 mg/kg, n=11, listed as 7-OH CBD) | Efficacy in a model of inflammation [2] | Patients becoming seizure free ([3]; 200 mg/day pure CBD, four adult patients (Mechoulam and Carlini, 1978)) | Control of seizures ([3]; 200 mg/day pure CBD, open label, twelve institutionalized adult patients (Ames and Cridland, 1986)) | Number of patients with marked reduction of seizures ([3]; eight adult patients with generalized epilepsy (Cunha et al., 1980)) | Epileptic patients describing an improvement in their condition ([3]; eight epileptic patients (Carlini et al., 1981)) | Prevention of seizures [4] |
| --- | --- | --- | --- | --- | --- | --- | --- | --- | --- | --- | --- | --- | --- | --- | --- |
| C=C(C)[C@@H]1CCC(CO)=C[C@H]1c1c(O)cc(CCC)cc1O [7-OH-CBDV, 7-hydroxy-cannabidivarin] | anti-convulsant effects | show anti-convulsant action | 3 | significant effect on mortality | more potent than their parent cannabinoids |  |  |  |  |  |  |  |  |  |  |
| C=C(C)[C@@H]1CCC(C)=C[C@H]1c1c(O)cc(CCC)cc1O [CBDV, Cannabidivarin] |  |  | significantly reduced seizure severity | significant effect on mortality |  | 82% *** | significantly reduced |  |  |  |  |  |  |  |  |
| C=C(C)[C@@H]1CCC(CO)=C[C@H]1c1c(O)cc(CCCCC)cc1O [7-OH-CBD, 7-hydroxy-cannabidiol] |  | show anti-convulsant action |  | reduction in mortality | more potent than their parent cannabinoids |  |  | significantly reduce the latency to onset of seizures | significantly reduced the latency to seizure onset | found to be effective |  |  |  |  |  |
| C=C(C)[C@@H]1CCC(C)=C[C@H]1c1c(O)cc(CCCCC)cc1O [CBD, Cannabidiol] |  |  |  | reduction in mortality |  |  |  |  |  |  | two of the four patients became seizure free | ineffective in controlling seizures | 4 | Seven out of the eight | able to prevent seizures |

Source: patent publication US11793770B2, “7-OH-cannabidiol (7-OH-CBD) and/or 7-OH-cannabidivarin (7-OH-CBDV) for use in the treatment of epilepsy” (GW Research Limited, priority 2014, dated 2023)
